# Residue numbers refer to the chain shown, from its start. pIC50, pKi: −log10 of the molar value.
# Columns and labels:
# [1] = molecular target: T1, Solute carrier family 2, facilitated glucose transporter member 1 (Homo sapiens, UniProt P11166); experiment: Inhibition of GLUT1-mediated [14C]glucose uptake in human erythrocytes; type: cell-based
# T1 sequence (P11166 whole entry): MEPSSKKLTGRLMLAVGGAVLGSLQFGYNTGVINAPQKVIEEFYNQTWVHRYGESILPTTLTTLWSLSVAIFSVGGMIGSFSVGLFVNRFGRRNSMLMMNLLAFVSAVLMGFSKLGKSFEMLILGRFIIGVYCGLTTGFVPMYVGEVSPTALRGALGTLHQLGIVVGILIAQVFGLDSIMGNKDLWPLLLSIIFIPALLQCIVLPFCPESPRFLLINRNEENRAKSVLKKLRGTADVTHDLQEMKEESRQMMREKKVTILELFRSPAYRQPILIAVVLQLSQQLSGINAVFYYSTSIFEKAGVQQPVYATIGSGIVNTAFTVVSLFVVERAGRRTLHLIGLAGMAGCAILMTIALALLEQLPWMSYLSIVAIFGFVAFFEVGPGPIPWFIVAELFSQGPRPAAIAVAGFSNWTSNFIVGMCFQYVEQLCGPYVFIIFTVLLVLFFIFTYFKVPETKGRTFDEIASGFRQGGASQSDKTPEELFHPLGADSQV
# [2] = molecular target: T1, Solute carrier family 2, facilitated glucose transporter member 1; experiment: Competitive inhibition of glucose displaceable binding of [4-3H]cytochalasin B to GLUT1 in human erythrocyte membranes after 10 mins by double reciprocal plot analysis; type: cell membranes
# [3] = molecular target: T1, Solute carrier family 2, facilitated glucose transporter member 1; experiment: Competitive inhibition of GLUT1 in human HL60 cells assessed as reduction in 2-[1,2-3H]deoxy-D-glucose uptake measured for 30 secs by double reciprocal plot analysis; type: cell-based
# [4] = molecular target: T2, Solute carrier family 2, facilitated glucose transporter member 4 (Mus musculus, UniProt P14142); experiment: Inhibition of GLUT4 in mouse 3T3L1 cells assessed as reduction in insulin-stimulated 2-deoxy-D-[14C]glucose uptake; type: cell-based
# T2 sequence (P14142 whole entry): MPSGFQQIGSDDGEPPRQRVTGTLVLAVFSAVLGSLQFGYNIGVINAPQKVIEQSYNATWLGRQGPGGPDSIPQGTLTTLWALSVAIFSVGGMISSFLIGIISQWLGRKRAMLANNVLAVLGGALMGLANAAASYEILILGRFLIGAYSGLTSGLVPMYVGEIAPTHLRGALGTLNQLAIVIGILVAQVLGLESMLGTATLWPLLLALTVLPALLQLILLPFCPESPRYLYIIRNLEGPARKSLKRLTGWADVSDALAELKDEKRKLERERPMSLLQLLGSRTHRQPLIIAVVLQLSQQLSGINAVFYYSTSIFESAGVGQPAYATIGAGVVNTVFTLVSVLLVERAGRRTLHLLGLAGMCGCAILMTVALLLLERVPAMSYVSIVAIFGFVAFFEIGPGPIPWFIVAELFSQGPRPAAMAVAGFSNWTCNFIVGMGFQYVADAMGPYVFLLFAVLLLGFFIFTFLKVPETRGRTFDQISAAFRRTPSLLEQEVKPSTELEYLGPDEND
# [5] = molecular target: T1, Solute carrier family 2, facilitated glucose transporter member 1; experiment: Competitive inhibition of GLUT1 (unknown origin) expressed in CHO cells assessed as reduction in 2-[1,2-3H]deoxy-D-glucose uptake measured for 30 secs by double reciprocal plot analysis; type: cell-based
# [6] = molecular target: T3, Solute carrier family 2, facilitated glucose transporter member 1 (Homo sapiens) (UniProt P11166); experiment: Inhibition of GLUT1 in human HT1080 cells assessed as reduction in [3H]2-deoxy-D-glucose uptake at 10 uM preincubated for 30 mins followed by [3H]2-deoxy-D-glucose addition measured after 60 mins by microbeta scintillation counting method relative to control; type: cell-based
# T3 sequence (whole entry): T1 sequence (P11166 whole entry)
# [7] = molecular target: T1, Solute carrier family 2, facilitated glucose transporter member 1; experiment: Inhibition of GLUT1-mediated glucose uptake in human A549 cells assessed as reduction in ATP synthesis up to 30 mins in presence of mitochondrial function blocker antimycin A; type: cell-based
# [8] = molecular target: T1, Solute carrier family 2, facilitated glucose transporter member 1; experiment: Non-competitive inhibition of GLUT1-mediated facilitative uptake of [3H]-2-deoxy-D-glucose in human erythrocyte membranes; type: cell membranes
# [9] = molecular target: T1, Solute carrier family 2, facilitated glucose transporter member 1; experiment: Inhibition of GLUT1 (unknown origin)-mediated glucose uptake expressed in CHO-K1 cells assessed as reduction in ATP synthesis up to 30 mins in presence of mitochondrial function blocker antimycin A; type: cell-based
# [10] = molecular target: T1, Solute carrier family 2, facilitated glucose transporter member 1; experiment: Inhibition of human GLUT1 expressed in human DLD1 cells assessed as reduction in glucose uptake; type: cell-based
# [11] = molecular target: T4, Solute carrier family 2, facilitated glucose transporter member 4 (Homo sapiens, UniProt P14672); experiment: Inhibition of human GLUT4 expressed in CHO cells assessed as reduction in glucose uptake; type: cell-based
# T4 sequence (P14672 whole entry): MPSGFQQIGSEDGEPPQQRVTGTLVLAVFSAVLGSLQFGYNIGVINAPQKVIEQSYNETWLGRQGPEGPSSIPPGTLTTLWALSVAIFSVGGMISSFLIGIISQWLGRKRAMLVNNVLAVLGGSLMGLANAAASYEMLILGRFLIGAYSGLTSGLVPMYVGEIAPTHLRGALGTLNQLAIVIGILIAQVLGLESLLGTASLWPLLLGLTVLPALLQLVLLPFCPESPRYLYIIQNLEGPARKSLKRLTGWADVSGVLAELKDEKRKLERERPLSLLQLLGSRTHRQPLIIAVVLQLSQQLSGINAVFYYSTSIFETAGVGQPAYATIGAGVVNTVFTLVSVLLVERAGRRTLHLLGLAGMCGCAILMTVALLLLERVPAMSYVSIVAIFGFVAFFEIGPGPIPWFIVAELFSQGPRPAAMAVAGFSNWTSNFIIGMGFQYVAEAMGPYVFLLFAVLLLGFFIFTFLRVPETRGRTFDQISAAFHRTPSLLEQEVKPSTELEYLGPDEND
# A2780cisR = experiment: Cytotoxicity against human A2780cisR cells; type: functional, cell-based
# A2780S = experiment: Cytotoxicity against human A2780S cells; type: functional, cell-based
# A549 = experiment: Antitumor activity against human A549 cells xenografted in NU/J nude mouse assessed as inhibition of tumor volume at 10 mg/kg, ip administered daily for 10 weeks measured every 7 days during compound dosing relative to control; type: functional
# [12] = molecular target: T5, Solute carrier family 2, facilitated glucose transporter member 2 (Homo sapiens, UniProt P11168); experiment: Inhibition of human GLUT2 expressed in Xenopus laevis oocytes assessed as reduction in [14C]fructose uptake by scintillation spectrometric method; type: cell-based
# T5 sequence (P11168 whole entry): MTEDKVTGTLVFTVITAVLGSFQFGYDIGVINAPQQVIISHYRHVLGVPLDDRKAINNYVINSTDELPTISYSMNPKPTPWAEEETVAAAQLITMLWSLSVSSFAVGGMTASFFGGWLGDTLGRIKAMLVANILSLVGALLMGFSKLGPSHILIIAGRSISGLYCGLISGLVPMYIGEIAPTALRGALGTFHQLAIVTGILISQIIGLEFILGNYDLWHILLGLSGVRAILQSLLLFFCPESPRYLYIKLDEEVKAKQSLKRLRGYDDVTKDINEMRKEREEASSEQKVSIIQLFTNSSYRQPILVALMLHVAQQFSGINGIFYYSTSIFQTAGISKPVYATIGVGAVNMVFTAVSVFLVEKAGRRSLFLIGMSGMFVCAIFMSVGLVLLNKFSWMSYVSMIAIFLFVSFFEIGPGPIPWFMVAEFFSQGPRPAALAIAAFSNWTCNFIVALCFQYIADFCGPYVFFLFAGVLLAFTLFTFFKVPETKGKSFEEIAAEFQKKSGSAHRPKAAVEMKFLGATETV
# [13] = molecular target: T5, Solute carrier family 2, facilitated glucose transporter member 2; experiment: Inhibition of human GLUT2 expressed in Xenopus laevis oocytes assessed as reduction in [3H] 2-deoxyglucose uptake by scintillation spectrometric method; type: cell-based
# [14] = molecular target: T6, Solute carrier family 2, facilitated glucose transporter member 4 (Rattus norvegicus, UniProt P19357); experiment: Competitive inhibition of GLUT4 in Wistar rat adipocytes assessed as reduction in insulin-stimulated 3-O-[3H]methyl-D-glucose uptake measured for 30 secs by Lineweaver-Burk plot analysis; type: cell-based
# T6 sequence (P19357 whole entry): T2 sequence (P14142 whole entry) with D11E, R17Q, L208I, I218L, M273L, S316L, G320E, A379S, K467R, A482T
# RCC4 = experiment: Growth inhibition of VHL-deficient human RCC4 cells by XTT assay; type: functional, cell-based
# [15] = molecular target: T1, Solute carrier family 2, facilitated glucose transporter member 1; experiment: Inhibition of GLUT1 in human A431 cells assessed as reduction in 2-[1,2-3H]deoxy-D-glucose uptake measured after 30 mins by liquid scintillation counting method; type: cell-based
smiles,measurement,setting,value
O=C(CCCc1ccc(N(CCCl)CCCl)cc1)OC[C@H]1OC(O)[C@H](O)[C@@H](O)[C@@H]1O (stereo partly specified),pIC50,[1],4.19
O=c1c(-c2ccc(O)cc2)coc2cc(O)cc(O)c12 [GENISTEIN],pKi,[2],5.15
same,pKi,[3],5.15
same,pIC50,[4],4.70
same,pKi,[5],5.15
CC(C)NC(=O)COc1cccc(-c2nc(Nc3ccc4[nH]ncc4c3)c3ccccc3n2)c1,inhibition,[6],> 90%
CCOC(=O)[C@@]12CN(C(=O)OC(C)(C)C)CC=C1N(CCc1ccc(OC)c(OC)c1)C(=O)[C@H]2CC(=O)NCc1cccc2ccccc12,pIC50,[7],5.52
same,pKi,[8],6.10
same,pIC50,[9],6.00
COc1ccc(CC(=O)N[C@@H](Cc2ccccc2Br)C(=O)N[C@@H](C)c2ccccc2)cc1,pIC50,[10],6.85
same,pIC50,[11],7.05
CC(=O)N[C@H](C(=O)N[C@H]1C(O)O[C@H](CO)[C@@H](O)[C@@H]1O)C(C)(C)SN=O (stereo partly specified),pIC50,A2780cisR,6.42
same,pIC50,A2780S,8.38
C[C@H](NC(=O)[C@H](Cc1ccc(F)cc1)NC(=O)Cc1cccc(O)c1)c1ccccc1,pIC50,[10],6.57
same,pIC50,[11],6.71
O=C(Oc1cccc(F)c1OC(=O)c1cccc(O)c1)c1cccc(O)c1,inhibition in vivo at 10 mg/kg,A549,> 70%
O=c1c(O)c(-c2ccc(O)c(O)c2)oc2cc(O)cc(O)c12 [QUERCETIN],pIC50,[12],4.77 to 4.92
same,pIC50,[13],4.77 to 4.92
same,pKi,[14],4.80
CC(C)(C)c1ccc(S(=O)(=O)NCc2ccc(C(=O)Nc3cccnc3)cc2)cc1,pIC50,RCC4,5.10
C/C=C(\C)[C@H](O[C@@H]1O[C@H](CO)[C@@H](O)[C@H](O)[C@H]1O)[C@H](C)/C=C(C)/C=C/C/C(C)=C/Cc1nc(OC)c(OC)c(O)c1C,pIC50,[15],8.31

# — ChEMBL document CHEMBL3992488, “Anticancer agents interacting with membrane glucose transporters” (Medchemcomm, 2016)
